Reference: US20210261553A1, “FUSED TETRAZOLES AS LRRK2 INHIBITORS” (E-SCAPE Bio, Inc., priority 2018, published 2021)

Experiments:
[1] = target: T1, Recombinant G2019S-LRRK2 protein (Homo sapiens, UniProt Q5S007, G2019S); experiment: LRRK2 kinase activity assay (LanthaScreen TR-FRET), G2019S mutant; type: biochemical; details: 400 nM LRRKtide, 25 μM ATP, 60 min at room temperature
T1 construct: purchased Life Technologies PV4881
Description: (§1) LRRK2 kinase activity was measured using a LanthaScreen™ Kinase Activity Assay from ThermoFisher Scientific. Recombinant wild type or G2019S-LRRK2 protein (Life Technologies, PR8604B or PV4881, respectively), was incubated with a fluorescein-labeled peptide substrate called LRRKtide that is based upon ezrin/radixin/moesin (ERM) (Life Technologies, PV4901) in the presence of ATP and serially diluted compound. After an incubation period of 1 hr, the phosphotransferase activity was stopped and a terbium-labelled anti-pERM antibody (Life Technologies, PV4899) was added to detect the phosphorylation of LRRKtide by measuring the time resolved-Forster resonant energy transfer (TR-FRET) signal from the terbium label on the antibody to the fluorescein tag on LRRKtide, expressed as the 520 nm/495 nm emission ratio. Compound-dependent inhibition of the TR-FRET signal was used to generate a concentration-response curve for IC50 determination.
(§2) The assay was carried out under the following protocol conditions: 1 mM compound in DMSO was serially diluted 1:3, 11 points in DMSO with a Biomek FX and 0.1 μL of the diluted compound was subsequently stamped into the assay plate (384-well format Lumitrac 200, Greiner, 781075) with an Echo Labcyte such that the final compound concentration in the assay was 10 μM to […]. Subsequently, 5 μL of 2× kinase solution (2.9 nM final concentration) was added to the assay plate in assay buffer composed of 50 mM Tris pH 8.5 (Sigma, T6791), 5 mM MgCl2 (Fluka, 63020), 1 mM EGTA (Sigma, E3889), 0.01% BRU-35 (Sigma, P1254) and 2 mM DTT. The reaction was started by addition of 2×ATP/LRRKtide solution in assay buffer such that the final concentration was 400 nM LRRKtide and 25 μM ATP. After 60 min incubation at room temperature, the reaction was stopped by addition of […] containing a final concentration of 2 nM anti-pERM antibody and […]. After a 30 min incubation at RT, the TR-FRET signal was measured on a Wallac 2104 EnVision® multilabel reader at an excitation wavelength of 340 nm and reading emission at 520 nm and 495 nm. The ratio of the 520 nm and 495 nm emission was used to analyze the data.

[2] = target: T2, Recombinant wild type LRRK2 protein (Homo sapiens, UniProt Q5S007); experiment: LRRK2 kinase activity assay (LanthaScreen TR-FRET), wild type; type: biochemical; details: 400 nM LRRKtide, 25 μM ATP, 60 min at room temperature; read-out: LRRK2 WT IC50
T2 construct: purchased Life Technologies PR8604B
T2 sequence (Q5S007 whole entry): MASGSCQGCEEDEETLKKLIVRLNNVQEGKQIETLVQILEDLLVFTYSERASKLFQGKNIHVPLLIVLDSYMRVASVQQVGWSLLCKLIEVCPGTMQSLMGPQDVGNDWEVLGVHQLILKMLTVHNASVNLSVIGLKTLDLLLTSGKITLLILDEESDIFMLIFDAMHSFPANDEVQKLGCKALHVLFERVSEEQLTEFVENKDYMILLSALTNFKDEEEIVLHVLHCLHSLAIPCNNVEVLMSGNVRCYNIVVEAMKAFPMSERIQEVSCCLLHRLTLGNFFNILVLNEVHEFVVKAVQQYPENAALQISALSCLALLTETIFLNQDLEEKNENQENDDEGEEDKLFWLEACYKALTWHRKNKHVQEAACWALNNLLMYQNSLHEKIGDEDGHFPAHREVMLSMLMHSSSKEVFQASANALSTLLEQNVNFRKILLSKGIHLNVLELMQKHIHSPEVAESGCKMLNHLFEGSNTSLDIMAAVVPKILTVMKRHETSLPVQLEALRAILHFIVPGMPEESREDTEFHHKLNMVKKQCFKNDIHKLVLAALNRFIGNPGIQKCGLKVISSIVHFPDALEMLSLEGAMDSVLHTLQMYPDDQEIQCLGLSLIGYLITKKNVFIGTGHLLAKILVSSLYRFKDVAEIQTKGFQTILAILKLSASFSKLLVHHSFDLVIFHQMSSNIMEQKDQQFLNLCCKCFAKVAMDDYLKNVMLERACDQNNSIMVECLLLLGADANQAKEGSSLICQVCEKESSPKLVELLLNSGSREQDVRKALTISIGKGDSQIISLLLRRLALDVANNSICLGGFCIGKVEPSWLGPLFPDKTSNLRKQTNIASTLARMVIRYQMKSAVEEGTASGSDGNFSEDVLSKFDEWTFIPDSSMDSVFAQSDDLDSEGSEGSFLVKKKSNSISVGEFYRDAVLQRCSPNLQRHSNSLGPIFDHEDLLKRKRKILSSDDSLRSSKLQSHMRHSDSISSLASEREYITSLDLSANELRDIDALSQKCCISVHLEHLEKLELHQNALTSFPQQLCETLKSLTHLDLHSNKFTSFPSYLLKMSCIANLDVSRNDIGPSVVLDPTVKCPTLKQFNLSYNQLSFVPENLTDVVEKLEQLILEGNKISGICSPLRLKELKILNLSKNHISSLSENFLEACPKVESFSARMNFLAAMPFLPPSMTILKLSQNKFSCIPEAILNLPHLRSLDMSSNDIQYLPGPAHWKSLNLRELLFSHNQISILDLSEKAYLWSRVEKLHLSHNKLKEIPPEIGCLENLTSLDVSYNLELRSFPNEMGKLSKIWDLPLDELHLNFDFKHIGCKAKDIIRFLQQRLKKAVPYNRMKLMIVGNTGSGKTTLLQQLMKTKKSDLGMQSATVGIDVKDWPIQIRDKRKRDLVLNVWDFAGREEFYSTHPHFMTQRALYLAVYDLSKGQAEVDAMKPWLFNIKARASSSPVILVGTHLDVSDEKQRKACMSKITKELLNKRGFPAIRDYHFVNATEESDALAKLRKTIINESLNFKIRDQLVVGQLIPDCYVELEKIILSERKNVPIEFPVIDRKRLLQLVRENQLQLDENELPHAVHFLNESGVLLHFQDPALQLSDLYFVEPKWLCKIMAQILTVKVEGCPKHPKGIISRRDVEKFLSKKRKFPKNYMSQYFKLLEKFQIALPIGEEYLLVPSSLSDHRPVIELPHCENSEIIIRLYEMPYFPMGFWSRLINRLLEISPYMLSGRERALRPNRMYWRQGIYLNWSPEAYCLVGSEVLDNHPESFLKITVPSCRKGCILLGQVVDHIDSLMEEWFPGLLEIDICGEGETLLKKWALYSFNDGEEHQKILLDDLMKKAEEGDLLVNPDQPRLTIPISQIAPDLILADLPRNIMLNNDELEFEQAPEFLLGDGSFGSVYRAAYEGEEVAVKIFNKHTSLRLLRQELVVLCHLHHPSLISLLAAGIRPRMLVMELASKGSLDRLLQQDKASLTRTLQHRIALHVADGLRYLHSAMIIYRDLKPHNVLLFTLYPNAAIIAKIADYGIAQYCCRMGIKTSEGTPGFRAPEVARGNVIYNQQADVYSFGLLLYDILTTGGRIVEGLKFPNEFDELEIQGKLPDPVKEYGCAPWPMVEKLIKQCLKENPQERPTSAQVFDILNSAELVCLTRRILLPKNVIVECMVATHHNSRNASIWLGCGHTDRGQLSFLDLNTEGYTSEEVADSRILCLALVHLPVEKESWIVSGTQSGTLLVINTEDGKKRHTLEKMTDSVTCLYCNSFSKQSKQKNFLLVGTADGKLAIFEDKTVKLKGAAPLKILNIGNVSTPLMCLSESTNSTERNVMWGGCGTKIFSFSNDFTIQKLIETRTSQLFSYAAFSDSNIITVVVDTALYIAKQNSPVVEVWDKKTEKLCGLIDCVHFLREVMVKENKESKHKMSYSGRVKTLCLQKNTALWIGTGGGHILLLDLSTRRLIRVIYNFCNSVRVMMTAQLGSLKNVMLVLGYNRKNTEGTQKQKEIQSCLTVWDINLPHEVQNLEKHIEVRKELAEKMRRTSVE
Description: as §1, §2

T1 sequence (Q5S007 970-2527 G2019S limits assumed): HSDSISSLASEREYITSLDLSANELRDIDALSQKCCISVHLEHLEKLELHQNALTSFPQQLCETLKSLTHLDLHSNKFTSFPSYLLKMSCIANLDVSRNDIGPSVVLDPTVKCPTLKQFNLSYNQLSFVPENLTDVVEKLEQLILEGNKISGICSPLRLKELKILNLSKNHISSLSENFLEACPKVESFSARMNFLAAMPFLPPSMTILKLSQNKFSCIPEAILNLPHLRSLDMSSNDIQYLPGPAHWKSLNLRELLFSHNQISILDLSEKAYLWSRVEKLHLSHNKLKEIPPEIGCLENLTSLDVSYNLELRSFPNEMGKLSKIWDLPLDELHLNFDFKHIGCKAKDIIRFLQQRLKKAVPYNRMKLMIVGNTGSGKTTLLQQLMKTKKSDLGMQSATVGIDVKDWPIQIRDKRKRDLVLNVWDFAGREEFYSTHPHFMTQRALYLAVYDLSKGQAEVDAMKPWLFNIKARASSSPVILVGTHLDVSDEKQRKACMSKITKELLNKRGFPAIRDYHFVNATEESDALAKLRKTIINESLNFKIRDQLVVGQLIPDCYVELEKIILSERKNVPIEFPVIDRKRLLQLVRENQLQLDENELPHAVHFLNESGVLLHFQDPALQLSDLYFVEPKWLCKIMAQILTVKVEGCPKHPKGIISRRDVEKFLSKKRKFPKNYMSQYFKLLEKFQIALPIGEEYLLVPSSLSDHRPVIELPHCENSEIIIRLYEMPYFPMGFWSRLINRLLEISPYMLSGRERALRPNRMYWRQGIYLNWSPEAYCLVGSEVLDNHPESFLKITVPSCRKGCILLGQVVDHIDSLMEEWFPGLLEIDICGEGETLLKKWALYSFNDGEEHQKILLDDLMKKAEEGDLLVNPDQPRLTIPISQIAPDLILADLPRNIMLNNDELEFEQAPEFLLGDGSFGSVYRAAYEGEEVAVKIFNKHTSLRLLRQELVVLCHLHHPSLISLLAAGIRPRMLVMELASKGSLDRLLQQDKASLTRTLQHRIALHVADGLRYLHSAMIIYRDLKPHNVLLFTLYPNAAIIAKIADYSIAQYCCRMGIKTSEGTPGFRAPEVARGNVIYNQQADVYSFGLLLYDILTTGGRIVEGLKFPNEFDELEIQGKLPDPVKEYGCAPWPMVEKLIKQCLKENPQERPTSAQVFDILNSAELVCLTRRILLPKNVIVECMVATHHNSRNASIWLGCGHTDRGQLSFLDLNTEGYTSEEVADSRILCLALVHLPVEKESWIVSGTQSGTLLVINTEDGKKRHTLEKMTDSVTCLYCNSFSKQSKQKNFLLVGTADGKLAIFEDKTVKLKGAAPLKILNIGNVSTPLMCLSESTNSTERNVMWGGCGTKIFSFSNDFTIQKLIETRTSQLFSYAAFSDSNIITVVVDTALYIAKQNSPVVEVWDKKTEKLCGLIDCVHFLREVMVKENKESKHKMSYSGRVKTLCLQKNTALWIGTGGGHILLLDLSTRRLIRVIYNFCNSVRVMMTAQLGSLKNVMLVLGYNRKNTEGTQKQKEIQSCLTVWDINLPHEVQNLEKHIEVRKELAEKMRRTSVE

| IC50 [1] | IC50 [2] | Structure (SMILES) |
| --- | --- | --- |
| ≤ 100 nM | 1000 to 10000 nM | CC1=C(C(=O)Nc2ccc3[nH]ncc3c2)C(C)(C)n2nnnc2N1C [Example 26, N-(2H-indazol-5-yl)-4,5,7,7-tetramethyl-4,7-dihydrotetrazolo[1,5-a]pyrimidine-6-carboxamide] |
| ≤ 100 nM | ≤ 100 nM | CC1=C(C(=O)Nc2ccc3[nH]nc(Br)c3c2)Cn2nnnc2N1C [Example 10, N-(3-Bromo-1H-indazol-5-yl)-4,5-dimethyl-4,7-dihydrotetrazolo[1,5-a]pyrimidine-6-carboxamide] |
| ≤ 100 nM | ≤ 100 nM | CC1=C(C(=O)Nc2ccc3[nH]nc(-c4cc(N5CCOCC5)ncn4)c3c2)Cn2nnnc2N1C [Example 9, 4,5-Dimethyl-N-(3-(6-morpholinopyrimidin-4-yl)-1H-indazol-5-yl)-4,7-dihydrotetrazolo[1,5-a]pyrimidine-6-carboxamide] |
| 100 to 1000 nM | 1000 to 10000 nM | CC1=C(C(=O)Nc2cnc3n[nH]cc3c2)C(C)n2nnnc2N1C (centres unmarked) [Example 16, 4,5,7-trimethyl-N-(2H-pyrazolo[3,4-b]pyridin-5-yl)-4,7-dihydrotetrazolo[1,5-a]pyrimidine-6-carboxamide] |
| 100 to 1000 nM | 1000 to 10000 nM | CC1=C(C(=O)Nc2ccc3[nH]c(=O)[nH]c3c2)Cn2nnnc2N1C [Example 31, 4,5-dimethyl-N-(2-oxo-2,3-dihydro-1H-benzo[d]imidazol-5-yl)-4,7-dihydrotetrazolo[1,5-a]pyrimidine-6-carboxamide] |
| ≤ 100 nM | ≤ 100 nM | CC1=C(C(=O)Nc2ccc3[nH]nc(-c4ccc(S(N)(=O)=O)cc4)c3c2)Cn2nnnc2N1C [Example 11, 4,5-Dimethyl-N-(3-(4-sulfamoylphenyl)-1H-indazol-5-yl)-4,7-dihydrotetrazolo[1,5-a]pyrimidine-6-carboxamide] |
| ≤ 100 nM | ≤ 100 nM | CC1=C(C(=O)Nc2ccc3[nH]nc(-c4ccnc(N5CCOCC5)c4)c3c2)[C@@H](C)n2nnnc2N1C (single isomer, unassigned) [Example 24a] |
| ≤ 100 nM | 100 to 1000 nM | CC1=C(C(=O)Nc2ccc3[nH]nc(C(N)=O)c3c2)Cn2nnnc2N1C [Example 18, N-(3-carbamoyl-2H-indazol-5-yl)-4,5-dimethyl-4,7-dihydrotetrazolo[1,5-a]pyrimidine-6-carboxamide] |
| > 10000 nM | > 10000 nM | COC(=O)c1c(NC(=O)C2=C(C)N(C)c3nnnn3C2)ccc2n[nH]cc12 [Example 61, Methyl 5-(4,5-dimethyl-4,7-dihydrotetrazolo[1,5-a]pyrimidine-6-carboxamido)-2H-indazole-4-carboxylate] |
| ≤ 100 nM | ≤ 100 nM | CC1=C(C(=O)Nc2ccc3[nH]nc(-c4ccnc(N5CCOCC5)c4)c3c2)[C@H](C)n2nnnc2N1C (single isomer, unassigned) [Example 24b] |
| 1000 to 10000 nM | 1000 to 10000 nM | CC1=C(C(=O)Nc2cc3c[nH]nc3cc2N)C(C)n2nnnc2N1C (centres unmarked) [Example 25, N-(6-amino-2H-indazol-5-yl)-4,5,7-trimethyl-4,7-dihydrotetrazolo[1,5-a]pyrimidine-6-carboxamide] |
| ≤ 100 nM | 100 to 1000 nM | CCC1C(C(=O)Nc2ccc3[nH]ncc3c2)=C(C)N(C)c2nnnn21 (racemic) [Example 8, 7-Ethyl-N-(1H-indazol-5-yl)-4,5-dimethyl-4H,7H-[1,2,3,4]tetrazolo[1,5-a]pyrimidine-6-carboxamide] |
| 1000 to 10000 nM | 1000 to 10000 nM | CC1=C(C(=O)Nc2ccc3cn[nH]c3c2)Cn2nnnc2N1C [Example 3, N-(1H-indazol-6-yl)-4,5-dimethyl-4H,7H-[1,2,3,4]tetrazolo[1,5-a]pyrimidine-6-carboxamide] |
| ≤ 100 nM | 100 to 1000 nM | CCC1C(C(=O)Nc2ccc3[nH]ncc3c2)=C(C)N(C)c2nnnn21 (single isomer, unassigned) [Example 8a] |
| ≤ 100 nM | 100 to 1000 nM | CC1=C(C(=O)Nc2ccc3c(N)nccc3c2)[C@@H](C)n2nnnc2N1C [Example 42, (R)—N-(1-Aminoisoquinolin-6-yl)-4,5,7-trimethyl-4,7-dihydrotetrazolo[1,5-a]pyrimidine-6-carboxamide] |
| ≤ 100 nM | ≤ 100 nM | CC1=C(C(=O)Nc2ccc3[nH]ncc3c2)C(C)n2nnnc2N1C (single isomer, unassigned) [Example 2a] |
| 100 to 1000 nM | 1000 to 10000 nM | CC1=C(C(=O)Nc2ccc3n[nH]c(NC(=O)Cc4ccc(N(C)C)cc4)c3c2)Cn2nnnc2N1C [Example 52, N-(3-(2-(4-(Dimethylamino)phenyl)acetamido)-2H-indazol-5-yl)-4,5-dimethyl-4,7-dihydrotetrazolo[1,5-a]pyrimidine-6-carboxamide] |
| ≤ 100 nM | ≤ 100 nM | CC1=C(C(=O)Nc2ccc3[nH]nc(-c4ccncc4)c3c2)Cn2nnnc2N1C [Example 6, 4,5-dimethyl-N-(3-(pyridin-4-yl)-1H-indazol-5-yl)-4,7-dihydrotetrazolo[1,5-a]pyrimidine-6-carboxamide] |
| 1000 to 10000 nM | > 10000 nM | CC(=O)Nc1[nH]nc2ccc(NC(=O)C3=C(C)N(C)c4nnnn4C3)cc12 [Example 28, N-(3-acetamido-2H-indazol-5-yl)-4,5-dimethyl-4,7-dihydrotetrazolo[1,5-a]pyrimidine-6-carboxamide] |
| 1000 to 10000 nM | > 10000 nM | COc1cc2n[nH]cc2cc1NC(=O)C1=C(C)N(C)c2nnnn2C1 [Example 17, N-(6-methoxy-2H-indazol-5-yl)-4,5-dimethyl-4,7-dihydrotetrazolo[1,5-a]pyrimidine-6-carboxamide] |
| ≤ 100 nM | 100 to 1000 nM | CC1=C(C(=O)Nc2ccc3[nH]nc(C)c3c2)C(C)(C)n2nnnc2N1C [Example 60, 4,5,7,7-Tetramethyl-N-(3-methyl-2H-indazol-5-yl)-4,7-dihydrotetrazolo[1,5-a]pyrimidine-6-carboxamide] |
| ≤ 100 nM | ≤ 100 nM | CC1=C(C(=O)Nc2ccc3n[nH]c(Br)c3c2)[C@@H](C)n2nnnc2N1C [Example 22, (7R)—N-(3-bromo-2H-indazol-5-yl)-4,5,7-trimethyl-4,7-dihydrotetrazolo[1,5-a]pyrimidine-6-carboxamide] |
| ≤ 100 nM | ≤ 100 nM | CC1=C(C(=O)Nc2ccc3[nH]ncc3c2)Cn2nnnc2N1c1ccccc1 [Example 13, N-(1H-indazol-5-yl)-5-methyl-4-phenyl-4,7-dihydrotetrazolo[1,5-a]pyrimidine-6-carboxamide] |
| ≤ 100 nM | 100 to 1000 nM | CC1=C(C(=O)Nc2cc3cn[nH]c3cn2)C(C)n2nnnc2N1C (racemic) [Example 23, 4,5,7-trimethyl-N-(1H-pyrazolo[3,4-c]pyridin-5-yl)-4,7-dihydrotetrazolo[1,5-a]pyrimidine-6-carboxamide] |
| ≤ 100 nM | 100 to 1000 nM | CC1=C(C(=S)Nc2ccc3[nH]ncc3c2)Cn2nnnc2N1C [Example 15, N-(1H-indazol-5-yl)-4,5-dimethyl-4,7-dihydrotetrazolo[1,5-a]pyrimidine-6-carbothioamide] |
| ≤ 100 nM | 100 to 1000 nM | CC1=C(C(=O)Nc2ccc3[nH]ncc3c2)Cn2nnnc2N1C [Example 1, N-(1H-Indazol-5-yl)-4,5-dimethyl-4H,7H-[1,2,3,4]tetrazolo[1,5-a]pyrimidine-6-carboxamide] |
| ≤ 100 nM | 1000 to 10000 nM | CC1=C(C(=O)Nc2ccc3[nH]c(=O)n(C)c3c2)[C@@H](C)n2nnnc2N1C [Example 47, (R)-4,5,7-Trimethyl-N-(3-methyl-2-oxo-2,3-dihydro-1H-benzo[d]imidazol-5-yl)-4,7-dihydrotetrazolo[1,5-a]pyrimidine-6-carboxamide] |
| ≤ 100 nM | ≤ 100 nM | CC1=C(C(=O)Nc2ccc3[nH]nc(-c4ccncc4)c3c2)[C@@H](C)n2nnnc2N1C [Example 27, (R)-4,5,7-trimethyl-N-(3-(pyridin-4-yl)-1H-indazol-5-yl)-4,7-dihydrotetrazolo[1,5-a]pyrimidine-6-carboxamide] |
| 1000 to 10000 nM | 1000 to 10000 nM | CC1=C(C(=O)Nc2cc3c[nH]nc3cc2N)Cn2nnnc2N1C [Example 21, N-(6-amino-2H-indazol-5-yl)-4,5-dimethyl-4,7-dihydrotetrazolo[1,5-a]pyrimidine-6-carboxamide] |
| 1000 to 10000 nM |  | CC1=C(C(=O)Nc2ccc3c(c2)CC(=O)N3)Cn2nnnc2N1C [Example 29, 4,5-dimethyl-N-(2-oxoindolin-5-yl)-4,7-dihydrotetrazolo[1,5-a]pyrimidine-6-carboxamide] |
